One data set concerns huNSG mice. As to the method:
T cell activation was determined using the T Cell Activation/Expansion Kit (Miltenyi). Briefly, anti-biotin MACSiBead Particles were loaded with CD2, CD3, and CD28 antibodies. Cells from 7-day isochronic or heterochronic cultures, or MNCs isolated from huNSG mouse blood by Ficoll-Hypaque density gradient, were incubated with loaded anti-biotin MACSiBead Particles at a 1:2 bead to cell ratio for 72 h to activate T cells. Addition of unloaded MACSiBead Particles served as negative control. After 72 h, cells were fluorescently labeled using CD45-FITC, CD4-PE, CD25-PerCP-Cy5.5 and CD8-APC to determine T cell activation status by flow cytometry.
5-week old, female NOD/scid IL2Rγnull (NSG) mice were purchased from Jackson Labs and housed in an AALAC-accredited facility at Rutgers, N.J. Medical School (Newark, N.J.). The protocol was approved by the Institutional Animal Care and Use Committee, Rutgers School of Biomedical Health Sciences (Newark, N.J.). Mice were acclimated in the Rutgers barrier animal facility for 1 week prior to experimental use. 6-week old mice were subjected to 150 cGy whole body gamma irradiation using a Mark-I cesium irradiator unit. 5 hours post-irradiation, mice were injected i.v. with 5×10^5 human CD34+ cells isolated from aged or young study donor Leukopaks. Engraftment proceeded over 15-19 weeks, with peripheral blood chimerism monitored at 9 and 13 weeks post-transplant. % Chimerism was detected by co-labeling blood with anti-human CD45-APC (HI30) and anti-mouse CD45-FITC (30-F11) for monitoring by flow cytometry. Humanized NSG (huNSG) enrolled in the treatment arm of the transwell-based animal study were given a 2nd i.v. injection of 5×10^5 autologous aged cells from 7-day isochronic (non-restored) or heterochronic (restored) cultures that were CD3-depleted (Miltenyi) prior to transplant, or saline control. The miRNA-based animal study was performed as above, except that the treatment arm utilized autologous aged cells transfected with 60 nmol total of either miR-619 alone, miR-combo (miR-619, -1303, 4497) or control RNA. Transfections utilized the HiPerFect reagent (Qiagen), and cells were transfected for a total of 7 days prior to CD3 depletion and i.v. injection as above. Mice were sacrificed at 14-15 weeks post-transplant, and blood, BM and speen harvested for biochemical, phenotypic and functional analyses. Major organs were also harvested for histological assessment. Tissue embedding, processing and staining were performed by the Digital Imaging and Histology Core of Rutgers-New Jersey Medical School Cancer Center (Newark, N.J.). Histologic findings were confirmed on H&E slides by a board-certified veterinary pathologist.
Detection of senescence associated secretory factors (SASFs) in plasma of huNSG mice was performed using Custom C-Series Human Antibody Arrays (Ray Biotech). Arrays were labeled with antibodies to 68 different factors linked to cellular senescence. Briefly, blood from huNSG mice was pelleted for 10 min at 300 g and plasma supernatant collected in siliconized microfuge tubes for SASF determination. […] Background levels were calculated by incubating the arrays with plasma from non-humanized NSG mice and then subtracting the obtained values from each huNSG sample.
For the T Cell Cytokine Array (Ray Biotech), conditioned media was collected from cells isolated from huNSG peripheral blood that were stimulated as per the T cell activation assay (see above) after 72 h and stored in protein lo-bind tubes. […] For both the custom SASF and T cell cytokine arrays, densitometry was performed using the UN-SCAN-IT densitometry software (Silk Scientific). Hierarchical clustering and heat map generation were perfomed with Heatmapper software.
BM from huNSG were flushed with a 26-gauge needle and collected for subsequent purification of engrafted human cells with the Mouse Cell Depletion Kit (Miltenyi).

The next data set relates to aged cells. Nature of the data set: Clonogenic assay (CFU-GM) of aged cells after miRNA mimic, siRNA or exosome treatment. Type of data set: cell-based, human. The following applies: overexpression of candidate miRNAs in aged isochronic cultures, vs negative control RNA. From the text: Aged TNCs (10×10^6 cells per sample) were nucleofected with microRNA mimics (Qiagen), miRNA inhibitors (Qiagen), negative control siRNA (Qiagen), negative control miRNA inhibitor (Qiagen) or downstream target candidate siRNAs (Origene) using the Amaxa P3 Primary Cell 4D-Nucleofector X Kit (Lonza) on a 4D Nucleofector device (Lonza), according to manufacturer's specific protocol. Briefly, for nucleofection of CD34+ cells used in clonogenic assays, cells were nucleofected with 60 nmol total miRNA mimics, miRNA inhibitors or siRNA using the “human CD34+ cell” program. For nucleofection of T cells used in T cell activation and cell-mediated cytotoxicity assays, cells were nucleofected with 240 nmol total miRNA mimics, miRNA inhibitors or siRNA using the “human unstimulated T cell, high functionality” program.

The next data set concerns K562. Kind of data set: Cell-mediated cytotoxicity assay, aged effector cells. It is filed as cell-based. As to conditions: miRNA formulations in aged cells, vs control RNA. The protocol:
Cell cytotoxicity was determined with the CFSE/7-AAD Cell Cytotoxicity Kit (Cayman Chemical) according to manufacturer's specified instructions. Briefly, the human chronic myelogenous leukemia cell line, K562, (ATCC # CCL-243) was used as target cells. 107 K562 cells were labeled for 15 min with CFSE dye, washed twice and diluted 100-fold for 30 min incubation at 37° C. Cells from 7-day isochronic or heterochronic cultures were used as effectors. Effector and target cells were added to 6-well plates at the following effector-to-target (E:T) ratios: 0:1, 6.25:1, 12.5:1 and 25:1, and cell mixtures incubated for 4 h at 37° C. Cells were harvested and counter-stained with 7-AAD. 50,000 events were acquired on the FACSCalibur flow cytometer, and data analyzed using BD CellQuest Pro™ software. Target cells incubated alone with 7-AAD served as control to calculate spontaneous lysis, while effector cells alone with 7-AAD served as control to detect dead effector cells. Percent lysis was calculated according the following formula: [(cells positive for both CFSE and 7-AAD/total CFSE-labeled cells)*100−spontaneous % lysis]. […]

Regarding “miR-619: miRNA (miR-619-5p), GCUGGGAUUACAGGCAUGAGCC (chemistry not given here; listed as Homo sapiens)”, the “SASFs decreased (68 factors linked to the SASP)” value with huNSG mice (blood plasma, 1.5-fold cutoff, vs control) is given as 51.4%. In addition, the “total SASF expression” value in the data set on huNSG mice (blood plasma, vs control) is listed as “significant decreases”. In the data set with huNSG mice (mice receiving aged cells treated with miRNA, 15 weeks after 2nd transplant), this substance came in with a mean overall survival of 89%. In addition, the clonogenicity entry in the data set with huNSG mice (normalized to control, compared to heterochronic treatment) is “more robust”. For the same substance, in the data set on huNSG mice (vs RNA control), the “huCD3+ cells in blood” value is listed as “increased” and the “huCD4+ cells in blood” value was “significantly increased”. In addition, in the data set on huNSG mice (vs control), the BM clonogenicity result is reported as “significantly increased”, the “huCD4+/CD8+ ratio in blood” value was “increased” and the “huCD8+ cells in blood” value was “decreased”. In the data set with huNSG mice (vs control RNA), the “human chimerism in BM or blood” value was “No significant difference”. In the data set with aged cells, the aged colony formation result is recorded as “significant effect”. Also, the “target lysis (cell-mediated cytotoxicity)” value in the data set on K562 is “significant increases”.
